How the values were obtained:
[1] = biological target: Carbonic anhydrase 2 (Homo sapiens) (UniProt P00918)
[2] = biological target: Carbonic anhydrase 1 (Homo sapiens) (UniProt P00915)
[3] = biological target: Carbonic anhydrase 5B, mitochondrial (Homo sapiens) (UniProt Q9Y2D0)
Carbonic anhydrase 5B, mitochondrial (Homo sapiens), sequence (Q9Y2D0 whole entry): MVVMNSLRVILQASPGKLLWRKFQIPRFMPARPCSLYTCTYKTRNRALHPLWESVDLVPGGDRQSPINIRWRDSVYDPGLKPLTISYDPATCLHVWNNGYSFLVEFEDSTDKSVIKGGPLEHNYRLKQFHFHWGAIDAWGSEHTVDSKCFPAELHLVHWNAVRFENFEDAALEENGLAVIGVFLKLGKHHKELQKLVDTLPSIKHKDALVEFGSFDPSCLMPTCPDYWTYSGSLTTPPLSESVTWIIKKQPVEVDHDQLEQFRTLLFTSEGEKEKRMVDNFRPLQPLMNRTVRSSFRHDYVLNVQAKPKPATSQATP
Description: Inhibition of human recombinant carbonic anhydrase 5B by stopped flow CO2 hydration method

Carbonic anhydrase 1 (Homo sapiens), sequence (P00915 2-261 limits assumed): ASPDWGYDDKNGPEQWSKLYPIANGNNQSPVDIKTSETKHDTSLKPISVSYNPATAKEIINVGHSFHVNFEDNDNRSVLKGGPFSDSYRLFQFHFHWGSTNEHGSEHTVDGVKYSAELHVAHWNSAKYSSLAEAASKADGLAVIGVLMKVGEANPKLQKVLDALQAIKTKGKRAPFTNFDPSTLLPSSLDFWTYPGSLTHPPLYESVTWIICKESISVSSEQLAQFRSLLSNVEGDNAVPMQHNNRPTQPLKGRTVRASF

| SMILES | Ki [1] [µM] | Ki [2] [µM] | Ki [3] [µM] |
| --- | --- | --- | --- |
| OCCc1ccc(O)cc1 | 8.7 | 430 | 0.105 |
| O=C(Cc1ccc(O)c(Cl)c1)NCc1ccccc1 | 11.4 | 10.5 | 0.085 |
| O=C(O)Cc1ccc(O)cc1 | 10.3 | 309 | 0.107 |
| O=C(O)/C=C/C(=O)O | 10.5 | 395 | 0.09 |
| COCCNC(=O)Cc1ccc(O)c(Cl)c1 | 10.4 | 158 | 0.084 |
| O=C(Cc1ccc(O)c(Cl)c1)NCCc1ccccc1 | 9.8 | 9.6 | 0.091 |
| COc1cc([C@@H]2[C@@H](C)[C@@H](C)[C@@H]2c2ccc(O)c(OC)c2)ccc1O | 12.1 | 354 | 0.079 |

Now from value to compound:

| Ki [1] [µM] | Ki [2] [µM] | Ki [3] [µM] | SMILES |
| --- | --- | --- | --- |
| 7.5 | 284 | 0.098 | COC(=O)/C=C/C(=O)O |
| 9.6 | 10.5 | 0.07 | COc1cc(/C=C2\N=C(N)NC2=O)ccc1O |
| 9.4 | 10.7 | 0.081 | CCCCNC(=O)Cc1ccc(O)c(Cl)c1 |
| 11.7 | 368 | 0.069 | COc1cc([C@@H]2[C@@H](C)[C@H](C)[C@H]2c2ccc(O)c(OC)c2)ccc1O |
| 230 | 307 | 0.071 | COc1cc(C[C@@H](C)[C@H](C)Cc2ccc(O)c(OC)c2)ccc1O |
